{
  "source": "patent US4293549A",
  "about": "“Quinolinyl guanidines having antiinflammatory, analgesic or antipyretic activity” (Leo Pharmaceutical Products Ltd. A/S (Lovens Kemiske Fabrik, priority 1977, dated 1981)",
  "key": {"[1]": {"assay": "Acute toxicity in mice after oral administration", "conditions": "mouse, in vivo, p.os, mortality assessed eight days after administration, read-out: LD50 (with confidence limits)", "description": "The acute toxicity was determined in mice after oral administration. The mortality was assessed eight days after the administration and the LD50 (dose causing the death of 50% of the animals treated) was calculated according to the statistical method of Litchfield and Wilcoxon (J.Pharmacol.Exp.Ther. 96, 99, (1949))."}, "[2]": {"system": "carrageenin induced edema", "assay": "Inhibition of carrageenin edema in rats", "format": "in vivo", "conditions": "1 hr before carrageenin", "description": "Inhibitory activity toward carrageenin induced edema was assessed in rats using the technique of Winter C. A., Risley E. A., Nuss C. […] The compounds were orally administered suspended in 0.5% carboxymethylcellulose to 18 hrs fasting animals, 1 hr before the injection of carrageenin."}, "[3]": {"system": "adjuvant induced arthritis", "assay": "Inhibition of adjuvant induced arthritis in rats", "format": "in vivo", "excerpt": "The compounds were orally administered suspended in 0.5% carboxymethylcellulose, daily, from the day of adjuvant injection to 28 days later."}, "pain threshold": {"system": "pain threshold", "assay": "Analgetic effect in rats (Randall and Selitto)", "format": "in vivo", "conditions": "2 hrs after administration"}, "stomachs": {"system": "stomachs", "assay": "Gastro ulcerogenic activity in rats", "format": "in vivo", "conditions": "24 hrs; for Mean severity: scale 0=no lesion to +4=perforation", "description": "Rats fasted for 9 hrs before treatment were given different doses of the compounds. 24 hrs later the animals were killed, the stomachs were removed, opened along the lesser curvature and gross examined for the presence of lesions and their severity. The severity was assessed according to an arbitrary scale from 0=no lesion to +4=perforation."}, "prostaglandin synthetase": {"target": "T1, prostaglandin synthetase (Bos taurus, UniProt O62664)", "T1 construct": "lyophilized high speed precipitate of bovine seminal vesicle homogenate as enzyme; from tissue; host or cells: bovine seminal vesicle homogenate, lyophilized high speed precipitate", "T1 sequence (O62664 25-600)": "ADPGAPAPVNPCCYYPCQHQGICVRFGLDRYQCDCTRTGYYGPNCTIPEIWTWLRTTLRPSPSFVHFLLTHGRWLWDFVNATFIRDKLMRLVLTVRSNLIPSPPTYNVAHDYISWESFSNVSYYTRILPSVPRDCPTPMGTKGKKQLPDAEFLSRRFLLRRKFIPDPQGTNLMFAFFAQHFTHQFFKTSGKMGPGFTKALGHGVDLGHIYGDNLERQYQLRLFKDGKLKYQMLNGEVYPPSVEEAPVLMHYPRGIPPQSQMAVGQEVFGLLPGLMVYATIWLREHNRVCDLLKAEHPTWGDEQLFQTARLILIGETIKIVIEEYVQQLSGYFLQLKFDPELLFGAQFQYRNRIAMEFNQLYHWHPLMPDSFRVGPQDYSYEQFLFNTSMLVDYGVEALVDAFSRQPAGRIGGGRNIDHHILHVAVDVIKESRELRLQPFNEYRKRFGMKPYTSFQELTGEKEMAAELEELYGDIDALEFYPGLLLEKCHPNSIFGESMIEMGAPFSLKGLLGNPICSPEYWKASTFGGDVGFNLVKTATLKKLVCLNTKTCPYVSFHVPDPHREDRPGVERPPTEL", "assay": "Inhibition of prostaglandin synthetase (bovine seminal vesicle homogenate)", "format": "biochemical", "conditions": "lyophilized high speed precipitate of bovine seminal vesicle homogenate"}, "[4]": {"assay": "Antipyretic effect in rats", "format": "in vivo", "conditions": "over 180 min", "description": "The compounds were orally administered and the antipyretic index evaluated over 180 min. of the experiment."}},
  "data": [
    {"smiles": "COc1ccc2c(c1)c(CC(=O)O)c(C)n2C(=O)c1ccc(Cl)cc1", "note": "[Indomethacin, reference compound]", "values": [
      {"measurement": "LD50 at 192 h", "setting": "[1]", "result": 23, "unit": "mg/kg"},
      {"measurement": "% Inhibition 3 hrs after carrageenin", "setting": "[2]; oral dose 0.5 mg/kg", "result": 34, "unit": "%"},
      {"measurement": "% Inhibition 3 hrs after carrageenin", "setting": "[2]; oral dose 1 mg/kg", "result": 42, "unit": "%"},
      {"measurement": "% Inhibition 3 hrs after carrageenin", "setting": "[2]; oral dose 10 mg/kg", "result": 65, "unit": "%"},
      {"measurement": "% Inhibition of the swelling, 18th day, primary", "setting": "[3]; daily oral dose 0.3 mg/kg", "result": 20.3, "unit": "%"},
      {"measurement": "% Inhibition of the swelling, 18th day, secondary", "setting": "[3]; daily oral dose 0.3 mg/kg", "result": 13.5, "unit": "%"},
      {"measurement": "% Inhibition of the swelling, 28th day, primary", "setting": "[3]; daily oral dose 0.3 mg/kg", "result": 25.9, "unit": "%"},
      {"measurement": "% Inhibition of the swelling, 28th day, secondary", "setting": "[3]; daily oral dose 0.3 mg/kg", "result": 29.7, "unit": "%"},
      {"measurement": "% Inhibition of the swelling, 18th day, primary", "setting": "[3]; daily oral dose 1 mg/kg", "result": 62.4, "unit": "%"},
      {"measurement": "% Inhibition of the swelling, 18th day, secondary", "setting": "[3]; daily oral dose 1 mg/kg", "result": 66.2, "unit": "%"},
      {"measurement": "% Inhibition of the swelling, 28th day, primary", "setting": "[3]; daily oral dose 1 mg/kg", "result": 80.5, "unit": "%"},
      {"measurement": "% Inhibition of the swelling, 28th day, secondary", "setting": "[3]; daily oral dose 1 mg/kg", "result": 76.8, "unit": "%"},
      {"measurement": "Increase of pain threshold", "setting": "pain threshold; oral dose 1 mg/kg", "result": 19, "unit": "mmHg"},
      {"measurement": "Increase of pain threshold", "setting": "pain threshold; oral dose 3 mg/kg", "result": 34, "unit": "mmHg"},
      {"measurement": "% with lesions", "setting": "stomachs; oral dose 5 mg/kg", "result": 20, "unit": "%"},
      {"measurement": "Mean severity", "setting": "stomachs; oral dose 5 mg/kg", "result": 1.3},
      {"measurement": "% with lesions", "setting": "stomachs; oral dose 10 mg/kg", "result": 70, "unit": "%"},
      {"measurement": "Mean severity", "setting": "stomachs; oral dose 10 mg/kg", "result": 2.8}
    ]},
    {"smiles": "Cc1cc(/N=C(\\Nc2nccs2)NC2CCCCC2)c2ccccc2n1", "note": "[SR 1368, N-Cyclohexyl-N\"-4-(2-methylquinolyl)-N'-2-thiazolylguanidine]", "values": [
      {"measurement": "LD50 at 192 h", "setting": "[1]", "result": "> 1000", "unit": "mg/kg"},
      {"measurement": "% Inhibition 3 hrs after carrageenin", "setting": "[2]; oral dose 25 mg/kg", "result": 40, "unit": "%"},
      {"measurement": "% Inhibition 3 hrs after carrageenin", "setting": "[2]; oral dose 50 mg/kg", "result": 62, "unit": "%"},
      {"measurement": "% Inhibition 3 hrs after carrageenin", "setting": "[2]; oral dose 100 mg/kg", "result": 71, "unit": "%"},
      {"measurement": "% Inhibition of the swelling, 18th day, primary", "setting": "[3]; daily oral dose 5 mg/kg", "result": 23.5, "unit": "%"},
      {"measurement": "% Inhibition of the swelling, 18th day, secondary", "setting": "[3]; daily oral dose 5 mg/kg", "result": 14.9, "unit": "%"},
      {"measurement": "% Inhibition of the swelling, 28th day, primary", "setting": "[3]; daily oral dose 5 mg/kg", "result": 21.4, "unit": "%"},
      {"measurement": "% Inhibition of the swelling, 28th day, secondary", "setting": "[3]; daily oral dose 5 mg/kg", "result": 32.1, "unit": "%"},
      {"measurement": "% Inhibition of the swelling, 18th day, primary", "setting": "[3]; daily oral dose 10 mg/kg", "result": 29.2, "unit": "%"},
      {"measurement": "% Inhibition of the swelling, 18th day, secondary", "setting": "[3]; daily oral dose 10 mg/kg", "result": 54.4, "unit": "%"},
      {"measurement": "% Inhibition of the swelling, 28th day, primary", "setting": "[3]; daily oral dose 10 mg/kg", "result": 42.7, "unit": "%"},
      {"measurement": "% Inhibition of the swelling, 28th day, secondary", "setting": "[3]; daily oral dose 10 mg/kg", "result": 68.7, "unit": "%"},
      {"measurement": "% Inhibition of the swelling, 18th day, primary", "setting": "[3]; daily oral dose 30 mg/kg", "result": 44.2, "unit": "%"},
      {"measurement": "% Inhibition of the swelling, 18th day, secondary", "setting": "[3]; daily oral dose 30 mg/kg", "result": 53.2, "unit": "%"},
      {"measurement": "% Inhibition of the swelling, 28th day, primary", "setting": "[3]; daily oral dose 30 mg/kg", "result": 69.4, "unit": "%"},
      {"measurement": "% Inhibition of the swelling, 28th day, secondary", "setting": "[3]; daily oral dose 30 mg/kg", "result": 69.2, "unit": "%"},
      {"measurement": "% Inhibition of the swelling, 18th day, primary", "setting": "[3]; daily oral dose 60 mg/kg", "result": 51.6, "unit": "%"},
      {"measurement": "% Inhibition of the swelling, 18th day, secondary", "setting": "[3]; daily oral dose 60 mg/kg", "result": 73.4, "unit": "%"},
      {"measurement": "% Inhibition of the swelling, 28th day, primary", "setting": "[3]; daily oral dose 60 mg/kg", "result": 74.2, "unit": "%"},
      {"measurement": "% Inhibition of the swelling, 28th day, secondary", "setting": "[3]; daily oral dose 60 mg/kg", "result": 82.6, "unit": "%"},
      {"measurement": "IC50", "setting": "prostaglandin synthetase", "result": 2.46, "unit": "µM"},
      {"measurement": "Increase of pain threshold", "setting": "pain threshold; oral dose 10 mg/kg", "result": 12, "unit": "mmHg"},
      {"measurement": "Increase of pain threshold", "setting": "pain threshold; oral dose 30 mg/kg", "result": 31, "unit": "mmHg"},
      {"measurement": "Increase of pain threshold", "setting": "pain threshold; oral dose 90 mg/kg", "result": 68, "unit": "mmHg"},
      {"measurement": "Antipyretic index", "setting": "[4]; oral dose 25 mg/kg", "result": 2.2},
      {"measurement": "Antipyretic index", "setting": "[4]; oral dose 50 mg/kg", "result": 5.6},
      {"measurement": "% with lesions", "setting": "stomachs; oral dose 25 mg/kg", "result": 0, "unit": "%"},
      {"measurement": "Mean severity", "setting": "stomachs; oral dose 25 mg/kg", "result": 0},
      {"measurement": "% with lesions", "setting": "stomachs; oral dose 50 mg/kg", "result": 20, "unit": "%"},
      {"measurement": "Mean severity", "setting": "stomachs; oral dose 50 mg/kg", "result": 0.9},
      {"measurement": "% with lesions", "setting": "stomachs; oral dose 100 mg/kg", "result": 40, "unit": "%"},
      {"measurement": "Mean severity", "setting": "stomachs; oral dose 100 mg/kg", "result": 1.7}
    ]}
  ]
}
